Data published in US4326054A, “Cleomycins and process for producing same” (Zaidan Hojin Biseibutsu Kagaku Kenkyu Kai, priority 1979, dated 1982).

Tests used:
[1] = tested on: Mycobacterium smegmatis ATCC 607; experiment: Antimicrobial activity, agar plate-cylinder method, bleomycin A2 as standard (1,000 u/mg); assay type: cell-based; details: copper-free form; for Antimicrobial potency: bleomycin A2 = 1,000 u/mg; for Antimicrobiral potency: Table 5, relative to bleomycin A2 = 1,000 u/mg
Procedure: Typical examples of the biological activities measured on cleomycins (copper-free form) are illustrated below.
Comparison was made with the relevant antibiotics bleomycins. The relative antimicrobial potency (u/mg) against Mycobacterium smegmatis ATCC 607 was measured by agar plate-cylinder method using bleomycin A2 as a standard (1,000 u/mg).
(Note: The antimicrobial potency was determined by taking bleomycin
A2 as 1,000 μ/mg and using Mycobacterium smegmatis ATCC 607 as a
test bacterium. Herinafter, the same was applied.)

[2] = tested on: Mycobacterium smegmatis ATCC 607; experiment: as above; assay type: cell-based; details: Examples, Step A; hydrochloride, copper-containing form; bleomycin A2 = 1,000 u/mg
HeLa S3 cells = experiment: Activity on cultured HeLa S3 cells (growth inhibition); assay type: cell-based
Procedure: Fifty percent inhibitory cocentration (LD50) was determined on a test compound cleomycin (No. 33) and on a reference compound bleomycin A2, from the percent of growth inhibition measured on HeLa S3 cells after the cells had been cultured in the presence of each of the compounds.

[3] = Solubility (physical and chemical properties, Tables 4-1 and 4-2); details: hydrochloride, also soluble in dimethylformamide, dimethylsulfoxide, and methanol
[4] = Examples, Step B, hydrochloride

| Structure (SMILES) | Antimicrobial potency [1, 4] | Antimicrobial potency [2] | Antimicrobiral potency [1] | also measured |
| --- | --- | --- | --- | --- |
| CCCCNCCCNCCCNC(=O)c1csc(-c2csc(CCNC(=O)C(NC(=O)C(C)C(O)C(C)NC(=O)C(NC(=O)c3nc(C(CC(N)=O)NCC(N)C(N)=O)nc(N)c3C)C(OC3OC(CO)C(O)C(O)C3OC3OC(CO)C(O)C(OC(N)=O)C3O)c3cnc[nH]3)C3(O)CC3)n2)n1 (stereo not drawn) | 7,942 u/mg | 8,130 u/mg |  |  |
| Cc1c(N)nc(C(CC(N)=O)NCC(N)C(N)=O)nc1C(=O)NC(C(=O)NC(C)C(O)C(C)C(=O)NC(C(=O)NCCc1nc(-c2nc(C(=O)NCCCNCCCCN)cs2)cs1)C1(O)CC1)C(OC1OC(CO)C(O)C(O)C1OC1OC(CO)C(O)C(OC(N)=O)C1O)c1cnc[nH]1 (stereo not drawn) | 3,575 u/mg | 3,520 u/mg |  |  |
| Cc1c(N)nc(C(CC(N)=O)NCC(N)C(N)=O)nc1C(=O)NC(C(=O)NC(C)C(O)C(C)C(=O)NC(C(=O)NCCc1nc(-c2nc(C(=O)NCCCCNC(=N)N)cs2)cs1)C1(O)CC1)C(OC1OC(CO)C(O)C(O)C1OC1OC(CO)C(O)C(OC(N)=O)C1O)c1cnc[nH]1 (stereo not drawn) [4-guanidinobutylaminocleomycin] | 3,262 u/mg | 3,350 u/mg |  |  |
| Cc1c(N)nc(C(CC(N)=O)NCC(N)C(N)=O)nc1C(=O)NC(C(=O)NC(C)C(O)C(C)C(=O)NC(C(=O)NCCc1nc(-c2nc(C(=O)NCCC[S+](C)C)cs2)cs1)C(C)O)C(OC1OC(CO)C(O)C(O)C1OC1OC(CO)C(O)C(OC(N)=O)C1O)c1cnc[nH]1 (stereo not drawn) [Bleomycin A2, reference compound] |  |  |  | IC50 (HeLa S3 cells; Homo sapiens, HeLa S3, read-out: LD50 (fifty percent inhibitory concentration, growth inhibition)): 0.73 µg/mL |
| Cc1c(N)nc(C(CC(N)=O)NCC(N)C(N)=O)nc1C(=O)NC(C(=O)NC(C)C(O)C(C)C(=O)NC(C(=O)NCCc1nc(-c2nc(C(=O)NCCCCNC(=N)N)cs2)cs1)C1(O)CC1)C(OC1OC(CO)C(O)C(O)C1OC1OC(CO)C(O)C(OC(N)=O)C1O)c1cnc[nH]1 (stereo not drawn) [Compound No. 2, 4-guanidinobutylaminocleomycin] |  |  | 3,262 u/mg | Solubility ([3]; copper-containing form): Soluble in water; Solubility ([3]; copper-free form): Soluble in water |
| Cc1c(N)nc(C(CC(N)=O)NCC(N)C(N)=O)nc1C(=O)NC(C(=O)NC(C)C(O)C(C)C(=O)NC(C(=O)NCCc1nc(-c2nc(C(=O)NCCCN(C)CCCN)cs2)cs1)C1(O)CC1)C(OC1OC(CO)C(O)C(O)C1OC1OC(CO)C(O)C(OC(N)=O)C1O)c1cnc[nH]1 (stereo not drawn) [Compound No. 20, 3-[N-methyl-N-(3-aminopropyl)]aminopropylaminocleomycin] | 2,273 u/mg | 2,300 u/mg | 2,273 u/mg |  |
| Cc1c(N)nc(C(CC(N)=O)NCC(N)C(N)=O)nc1C(=O)NC(C(=O)NC(C)C(O)C(C)C(=O)NC(C(=O)NCCc1nc(-c2nc(C(=O)NCCCNC(C)c3ccccc3)cs2)cs1)C1(O)CC1)C(OC1OC(CO)C(O)C(O)C1OC1OC(CO)C(O)C(OC(N)=O)C1O)c1cnc[nH]1 (stereo not drawn) [Compound No. 33, 3-[(s)-1'-phenylethylamino]propylaminocleomycin] |  | 11,300 u/mg | 10,949 u/mg | Antimicrobial potency ([1]; Example 1, Step B, sulfate): 10,949 u/mg; anti-HeLa action compared with bleomycin A2 (in words) (HeLa S3 cells; copper-free hydrochloride): activity nearly equal to that of bleomycin A2 |
| Cc1c(N)nc(C(CC(N)=O)NCC(N)C(N)=O)nc1C(=O)NC(C(=O)NC(C)C(O)C(C)C(=O)NC(C(=O)NCCc1nc(-c2nc(C(=O)NCCC[S+](C)C)cs2)cs1)C1(O)CC1)C(OC1OC(CO)C(O)C(O)C1OC1OC(CO)C(O)C(OC(N)=O)C1O)c1cnc[nH]1 (stereo not drawn) [compound 1, 3-s,s-dimethylmercaptopropylaminocleomycin] | 1,320 u/mg | 1,360 u/mg | 1,320 u/mg | Solubility ([3]; copper-containing form): Soluble in water; Solubility ([3]; copper-free form): Soluble in water |
| CCCCNCCCNCCCNC(=O)c1csc(-c2csc(CCNC(=O)C(NC(=O)C(C)C(O)C(C)NC(=O)C(NC(=O)c3nc(C(CC(N)=O)NCC(N)C(N)=O)nc(N)c3C)C(OC3OC(CO)C(O)C(O)C3OC3OC(CO)C(O)C(OC(N)=O)C3O)c3cnc[nH]3)C3(O)CC3)n2)n1 (stereo not drawn) [compound 11, 3-(3-n-butylaminopropylamino)propylaminocleomycin] |  |  | 7,942 u/mg | Solubility ([3]; copper-containing form): Soluble in water; Solubility ([3]; copper-free form): Soluble in water |
| Cc1c(N)nc(C(CC(N)=O)NCC(N)C(N)=O)nc1C(=O)NC(C(=O)NC(C)C(O)C(C)C(=O)NC(C(=O)NCCc1nc(-c2nc(C(=O)NCCCNCCCCCCO)cs2)cs1)C1(O)CC1)C(OC1OC(CO)C(O)C(O)C1OC1OC(CO)C(O)C(OC(N)=O)C1O)c1cnc[nH]1 (stereo not drawn) [compound 42, 3-(6-hydroxyhexylamino)propylaminocleomycin] |  |  | 4,806 u/mg |  |
| Cc1c(N)nc(C(CC(N)=O)NCC(N)C(N)=O)nc1C(=O)NC(C(=O)NC(C)C(O)C(C)C(=O)NC(C(=O)NCCc1nc(-c2nc(C(=O)NCCCNCCCN)cs2)cs1)C1(O)CC1)C(OC1OC(CO)C(O)C(O)C1OC1OC(CO)C(O)C(OC(N)=O)C1O)c1cnc[nH]1 (stereo not drawn) [compound 43, 3-(3-aminopropylamino)propylaminocleomycin] |  |  | 2,790 u/mg |  |
| Cc1c(N)nc(C(CC(N)=O)NCC(N)C(N)=O)nc1C(=O)NC(C(=O)NC(C)C(O)C(C)C(=O)NC(C(=O)NCCc1nc(-c2nc(C(=O)NCCCNCCCCCCN)cs2)cs1)C1(O)CC1)C(OC1OC(CO)C(O)C(O)C1OC1OC(CO)C(O)C(OC(N)=O)C1O)c1cnc[nH]1 (stereo not drawn) [compound 44, 3-(6-aminohexylamino)propylaminocleomycin] |  |  | 3,520 u/mg |  |
| Cc1c(N)nc(C(CC(N)=O)NCC(N)C(N)=O)nc1C(=O)NC(C(=O)NC(C)C(O)C(C)C(=O)NC(C(=O)NCCc1nc(-c2nc(C(=O)NCCCNCCCNCc3ccccc3)cs2)cs1)C1(O)CC1)C(OC1OC(CO)C(O)C(O)C1OC1OC(CO)C(O)C(OC(N)=O)C1O)c1cnc[nH]1 (stereo not drawn) [compound 45, 3-(3-benzylaminopropylamino)propylaminocleomycin] |  |  | 8,400 u/mg |  |
| Cc1c(N)nc(C(CC(N)=O)NCC(N)C(N)=O)nc1C(=O)NC(C(=O)NC(C)C(O)C(C)C(=O)NC(C(=O)NCCc1nc(-c2nc(C(=O)NCCCN(C)CCCNCc3ccccc3)cs2)cs1)C1(O)CC1)C(OC1OC(CO)C(O)C(O)C1OC1OC(CO)C(O)C(OC(N)=O)C1O)c1cnc[nH]1 (stereo not drawn) [compound 46, 3-[N-methyl-N-(3-benzylaminopropyl)]aminopropylcleomycin] |  |  | 7,660 u/mg |  |
